# Reference: ChEMBL document CHEMBL3132775, “Design, synthesis and biochemical investigation, by in vitro luciferase reporter system, of peptide nucleic acids as new inhibitors of miR-509-3p involved in the regulation of cystic fibrosis disease-gene expression” (Medchemcomm, 2014)
# The source made the active and inactive calls. The calls are words filed in the database; no cut-off is given here.
# Assays:
# [1] = tested on: A549; assay: Inhibition of miR-509-3p (unknown origin) transfected in human A549 cells assessed as luciferase activity at 50 uM by dual luciferase reporter gene assay; type: cell-based; parameters: scale not given: the % may be the effect or the level left
# [2] = Binding affinity to miR-509-3p (unknown origin) assessed as heteroduplex formation at 1:15 and 1:5 ratio after 2 hrs by EMSA
# [3] = Binding affinity to miR-509-3p (unknown origin) assessed as heteroduplex formation by CD spectra analysis
# [4] = tested on: A549; assay: Inhibition of miR-509-3p (unknown origin) transfected in human A549 cells at 100 uM after 12 hrs by fluorescence microscopy; type: cell-based
# [5] = tested on: A549; assay: Inhibition of miR-509-3p (unknown origin) transfected in human A549 cells by dual luciferase reporter gene assay; type: cell-based
# [6] = Binding affinity to miR-509-3p (unknown origin) assessed as apparent melting temperature by UV-spectrophotometeric analysis
# [7] = tested on: A549; assay: Inhibition of miR-509-3p (unknown origin) transfected in human A549 cells at 10 to 50 uM by dual luciferase reporter gene assay; type: cell-based
Activity [2],Activity [3],Tm(app) [6] [°C],Compound,Activity [1] [%],inhibition [4],inhibition [5],inhibition [7]
,,,Cc1cn(CC(=O)N(CCNC(=O)CN(CCNC(=O)CN(CCNC(=O)CN(CCNC(=O)CN(CCNC(=O)CN(CCNC(=O)CN(CCNC(=O)COCCOCCNC(=S)Nc2ccc(C3c4ccc(O)cc4OC4=CC(=O)C=CC43)c(C(=O)O)c2)C(=O)Cn2ccc(N)nc2=O)C(=O)Cn2cnc3c(N)ncnc32)C(=O)Cn2ccc(N)nc2=O)C(=O)Cn2cnc3c(=O)[nH]c(N)nc32)C(=O)Cn2cnc3c(=O)[nH]c(N)nc32)C(=O)Cn2cnc3c(N)ncnc32)CC(=O)NCCN(CC(=O)NCCN(CC(=O)NCCN(CC(=O)NCCN(CC(=O)NCCN(CC(=O)NCCN(CC(=O)NCCN(CC(=O)NCC(=O)NC(COP(=O)(O)O)C(=O)NC(COP(=O)(O)O)C(=O)NCC(N)=O)C(=O)Cn2cc(C)c(=O)[nH]c2=O)C(=O)Cn2cnc3c(=O)[nH]c(N)nc32)C(=O)Cn2ccc(N)nc2=O)C(=O)Cn2ccc(N)nc2=O)C(=O)Cn2cnc3c(=O)[nH]c(N)nc32)C(=O)Cn2cnc3c(N)ncnc32)C(=O)Cn2cnc3c(=O)[nH]c(N)nc32)c(=O)[nH]c1=O (stereo unspecified),< 40,,,
Active,Active,74,Cc1cn(CC(=O)N(CCNC(=O)CN(CCNC(=O)CN(CCNC(=O)CN(CCNC(=O)CN(CCNC(=O)CN(CCNC(=O)CN(CCNC(=O)CN(CCNC(=O)CN(CCNC(=O)CN(CCNC(=O)CN(CCNC(=O)CN(CCNC(=O)COCCOCCNC(=S)Nc2ccc(C3c4ccc(O)cc4OC4=CC(=O)C=CC43)c(C(=O)O)c2)C(=O)Cn2cnc3c(N)ncnc32)C(=O)Cn2cnc3c(=O)[nH]c(N)nc32)C(=O)Cn2cnc3c(N)ncnc32)C(=O)Cn2ccc(N)nc2=O)C(=O)Cn2cnc3c(=O)[nH]c(N)nc32)C(=O)Cn2cc(C)c(=O)[nH]c2=O)C(=O)Cn2cnc3c(N)ncnc32)C(=O)Cn2ccc(N)nc2=O)C(=O)Cn2ccc(N)nc2=O)C(=O)Cn2cnc3c(N)ncnc32)C(=O)Cn2cnc3c(N)ncnc32)CC(=O)NCCN(CC(=O)NCCN(CC(=O)NCC(=O)NC(COP(=O)(O)O)C(=O)NC(COP(=O)(O)O)C(=O)NCC(N)=O)C(=O)Cn2cnc3c(N)ncnc32)C(=O)Cn2ccc(N)nc2=O)c(=O)[nH]c1=O (stereo unspecified),,inactive,Dose-dependent effect,
Active,Active,80,Cc1cn(CC(=O)N(CCNC(=O)CN(CCNC(=O)CN(CCNC(=O)CN(CCNC(=O)CN(CCNC(=O)CN(CCNC(=O)CN(CCNC(=O)CN(CCNC(=O)CN(CCNC(=O)CN(CCNC(=O)CN(CCNC(=O)CN(CCNC(=O)COCCOCCNC(=S)Nc2ccc(C3c4ccc(O)cc4Oc4cc(O)ccc43)c(C(=O)O)c2)C(=O)Cn2cnc3c(N)ncnc32)C(=O)Cn2cnc3c(=O)[nH]c(N)nc32)C(=O)Cn2cnc3c(N)ncnc32)C(=O)Cn2ccc(N)nc2=O)C(=O)Cn2cnc3c(=O)[nH]c(N)nc32)C(=O)Cn2cc(C)c(=O)[nH]c2=O)C(=O)Cn2cnc3c(N)ncnc32)C(=O)Cn2ccc(N)nc2=O)C(=O)Cn2ccc(N)nc2=O)C(=O)Cn2cnc3c(N)ncnc32)C(=O)Cn2cnc3c(N)ncnc32)CC(=O)NCCN(CC(=O)NCCN(CC(=O)N[C@@H](CCCCN)C(=O)N[C@@H](CCCCN)C(N)=O)C(=O)Cn2cnc3c(N)ncnc32)C(=O)Cn2ccc(N)nc2=O)c(=O)[nH]c1=O,,inactive,,Active
